These results are taken from patent US20070123466A1, “Method of treating recurrent miscarriages” (New York Society for the Ruptured and Crippled Maintaining …, priority 2003, published 2007).

Common to all, as to assay type: in vivo, mouse
The subject of one assay is DBA/2-mated CBA/J mice. Nature of the assay: Fetal resorption in DBA/2-mated CBA/J mice, murine model of spontaneous recurrent miscarriage. The procedure: Female mice were allowed to mate with previously isolated male mice. The groups in the present experiment comprised 7-20 animals, one group of DBA/2-mated CBA/J mice and two controls (CBA×Balb/c and Balb/c×Balb/c). After mating, the females were checked daily until the presence of a vaginal plug was confirmed (this time point was then defined as day 0.5 of pregnancy). The mice were sacrificed 15 days post-conception. Uteri were dissected and the frequency of fetal resorption was determined as the number of resorptions divided by total number of formed fetuses and resorptions. Resorption sites, resulting from the loss of a previously viable fetus, are easily identifiable by visual inspection.
Mice were mated as described above, and sacrificed on day 8.5 post-conception. Sections of decidual tissue from CBA/J×Balb/c were incubated with an antibody to mouse C3, and followed by rabbit anti-goat IgG conjugated with HRP (horseradish peroxidase) and staining.
This experiment was carried out to investigate if blockade of complement activation would prevent fetal loss in the murine model of miscarriage. In these experiments, DBA/2-mated CBA/J pregnant mice were treated with three different targeted inhibitors of complement activation.
Crry-Ig. Complement receptor 1-related gene/protein y (Crry) inhibits C3 convertase activity. The Crry used in the experiments was Crry-Ig, which is a recombinant soluble form of Crry fused to the hinge, CH2, and CH3 domains of mouse IgG1, prepared as described in Quigg et al., J Immunol 1998;160:4553-4560. Crry-Ig blocks activation of C3 by both the classical and alternative pathways, thereby preventing all complement effector activities. Pregnant DBA/2-mated CBA/J mice were treated with 3 mg Crry-Ig, administered i.p. on days 8, 10 and 12.
Monoclonal anti-C5 mAb. Also tested was an antibody against C5, which prevents the cleavage of C5. […]
To inhibit factor B, mice were injected on days 7 through 13 of pregnancy with mAb1379 (2 mg intraperitoneally) or with murine IgG as a control. Fetal resorption frequency was calculated on day 15 of pregnancy.

For assay [1], the system named is pregnant mice treated with aPL-IgG. As to the kind of experiment: aPL antibody-induced pregnancy loss, murine pregnancy model of APS.
Assay [2] concerns C3 deposition in decidual tissue. As to the kind of experiment: Immunohistochemistry of deciduas (C3, human IgG, granulocytes). As to conditions: aPL-IgG treated mice that also received the agent.
Text: (§1) Immunohistochemistry. […] Sections were counterstained with hematoxylin.
as §1

Setting [3] is: mice given aPL-IgG 10 mg i.p. days 8 and 12 plus the agent.

For “AcPhe(L-ornithine-Pro-D-cyclohexylalanine-Trp-Arg) [C5aR-AP]”, the fetal resorption rate entry in the assay with DBA/2-mated CBA/J mice (DBA/2-mated CBA/J mice, 100 μg i.p. on day 8, sacrificed day 15) was “about 7%”. The “fetal loss / pregnancy loss” value with DBA/2-mated CBA/J mice (DBA/2-mated CBA/J mice, inhibitor i.p. during pregnancy, fetal resorption day 15) was “prevented fetal loss”. In the assay with DBA/2-mated CBA/J mice (uterus from treated DBA/2-mated CBA/J mouse, day 15), the “fetuses and resorptions in uterus” value is 6 larger fetuses with decidua and no resorptions. Besides, in assay [1] (setting [3]), the “aPL antibody-induced growth restriction” value was “prevented” and the “aPL antibody-induced pregnancy loss (fetal resorption)” value was “prevented”. In addition, the “frequency of fetal resorption in the absence of aPL antibodies” value in assay [1] (mice that received NH-IgG / no aPL antibodies) is recorded as “had no effect”. In addition, in assay [2], the “C3 deposition in decidual tissue” value was “minimal C3 deposition” and the “neutrophil infiltration / inflammation in deciduas” value is “no evidence of inflammation”.
